# Measured values from patent US20250073199A1, “Polymyxin Antibiotic Synergist and Anti-Gram-Negative Bacteria Pharmaceutical Composition” (Artivila Biopharma, priority 2022, published 2025).
# Legend:
# [1] = tested on: standard strain of Acinetobacter baumannii ATCC19606; experiment: Chessboard combination test, bacterial inhibition rate / MIC / FIC; format: cell-based; conditions: FIG. 3
# Protocol: (§1) 1) a standard strain of Klebsiella pneumoniae ATCC13883, a clinical resistant strain of Klebsiella pneumoniae 38206, a standard strain of Acinetobacter baumannii ATCC19606, a standard strain of Escherichia coli ATCC25922, and a standard strain of Pseudomonas aeruginosa ATCC27853 were respectively cultured at 37° C. and under shaking at 220 rpm until OD600=0.6-0.8, where OD600 referred to the absorbance of the solution at a wavelength of 600 nm.
# (§2) 2) The density of each bacterial culture with OD600=0.6-0.8 cultured in step 1) was adjusted to OD600=0.001 and placed in a chessboard experimental device.
# (§3) 3) Polymyxin B was subjected to 2-fold serial dilution along the horizontal axis, and dronedarone was subjected to 2-fold serial dilution along the vertical axis.
# (§4) 4) A blank group (added with a LB broth medium) and a control group (added with a LB broth medium and the standard bacterial solution cultured in step 1).
# (§5) 5) The final volume in each well of a 96-well plate was controlled to be 100 μL. After incubation for 18 h, each well was added with 10 μL of MTT, incubated at a condition of 37° C. with protection from light for 30 min, and then determined for the absorbance at 600 nm with a microplate reader. The bacterial inhibition rate was calculated according to the formula: bacterial inhibition rate (%)=1−(OD600 of an experimental group−OD600 of the blank group)/(OD600 of the control group−OD600 of the blank group)×100%, and a bacterial calorimetry diagram was drawn (the results were shown in FIGS. 1-5).
# (§6) The calculation equation of the FIC index was as follows:
# (§7) FIC=MICab/MICa+MICba/MICb=FICa+FICb, wherein a represented the dronedarone, b represented the polymyxin B, MICab was a MIC value of a combination of the dronedarone and the polymyxin B, MICba was a MIC value of a combination of the polymyxin B and the dronedarone, MICa or MICb was a MIC value of the dronedarone or the polymyxin B, respectively, and FICa or FICb was a FIC value of the dronedarone or the polymyxin B, respectively.
# [2] = tested on: standard strain of Escherichia coli ATCC25922; experiment: as above; format: cell-based; conditions: FIG. 4
# Protocol: as §1, §2, §3, §4, §5, §6, §7
# [3] = tested on: standard strain of Pseudomonas aeruginosa ATCC27853; experiment: as above; format: cell-based; conditions: FIG. 5
# Protocol: as §1, §2, §3, §4, §5, §6, §7
# [4] = tested on: clinical resistant strain of Klebsiella pneumoniae 38206; experiment: as above; format: cell-based; conditions: FIG. 2
# Protocol: as §1, §2, §3, §4, §5, §6, §7
# [5] = tested on: standard strain of Klebsiella pneumoniae ATCC13883; experiment: as above; format: cell-based; conditions: FIG. 1
# Protocol: as §1, §2, §3, §4, §5, §6, §7
# [6] = tested on: clinical polymyxin B-resistant strain of Klebsiella pneumoniae (38206); experiment: Mouse lung infection model, survival; format: in vivo, BALB/c female mice; conditions: intraperitoneal injection, 7 days
# Protocol: The dronedarone and the polymyxin B were combined to form a pharmaceutical composition, and used in combination in a mouse infection model to further illustrate the present disclosure.
# 1) Establishment of lung infection model: 60 BALB/c female mice aged 6-8 weeks (weighing about 20 g) were injected intrapulmonically with a lethal dose of a clinical polymyxin B-resistant strain of Klebsiella pneumoniae (38206) to establish an infection model. The concentration of the clinical polymyxin B-resistant strain of Klebsiella pneumoniae 38206 was 1.0×10^8 CFUs per mouse;
# 2) Group treatment: The female mice were randomly divided into six groups (n=10 mice per group), and treated with the drug through intraperitoneal injection.
# Among them, the six groups included a control group (injected with a PBS buffer), a treatment group I (injected with 0.2 mg/kg of the polymyxin B alone), a treatment group II (injected with 10 mg/kg of the dronedarone alone), a treatment group III (injected with a mixed solution of 0.2 mg/kg of the polymyxin B and 1 mg/kg of the dronedarone), a treatment group IV (injected with a mixed solution of 0.2 mg/kg of the polymyxin B and 5 mg/kg of the dronedarone), and a treatment group V (injected with a mixed solution of 0.2 mg/kg of the polymyxin B and 10 mg/kg of the dronedarone). […]
# [7] = in combination with polymyxin B 0.25 μg/mL
# [8] = in combination with dronedarone 5 μg/mL
# [9] = polymyxin B 1 μg/mL, dronedarone not used
# [10] = polymyxin B 2 μg/mL, dronedarone not used
# [11] = in combination with dronedarone 2.5 μg/mL
compound,measurement,setting,value
"CCCCc1oc2ccc(NS(C)(=O)=O)cc2c1C(=O)c1ccc(OCCCN(CCCC)CCCC)cc1 [dronedarone, N-[2-butyl-3-[4-[3-(dibutylamino)propoxy]benzoyl]-1-benzofuran-5-yl]methanesulfonamide]",inhibition at 20 µg/mL,"[1]; Acinetobacter baumannii, ATCC19606, dronedarone alone at highest concentration 20 μg/mL, no polymyxin B, read-out: bacterial inhibition percentage",~0%
same,MIC,"[1]; Acinetobacter baumannii, ATCC19606, used alone, read-out: MIC used alone (MICa, MICb)",> 20 µg/mL
same,MICab (MIC of dronedarone after combination with polymyxin B),[1]; [7],5 µg/mL
same,inhibition at 20 µg/mL,"[2]; Escherichia coli, ATCC25922, dronedarone alone at highest concentration 20 μg/mL, no polymyxin B, read-out: bacterial inhibition percentage",~0%
same,MIC,"[2]; Escherichia coli, ATCC25922, used alone, read-out: MIC used alone (MICa, MICb)",> 20 µg/mL
same,MICab (MIC of dronedarone after combination with polymyxin B),[2]; [7],5 µg/mL
same,inhibition at 20 µg/mL,"[3]; Pseudomonas aeruginosa, ATCC27853, dronedarone alone at highest concentration 20 μg/mL, no polymyxin B, read-out: bacterial inhibition percentage",~0%
same,MIC,"[3]; Pseudomonas aeruginosa, ATCC27853, used alone, read-out: MIC used alone (MICa, MICb)",> 20 µg/mL
same,MICab (MIC of dronedarone after combination with polymyxin B),[3]; in combination with polymyxin B 1 μg/mL,10 µg/mL
same,inhibition at 20 µg/mL,"[4]; Klebsiella pneumoniae, dronedarone alone at highest concentration 20 μg/mL, no polymyxin B, read-out: bacterial inhibition percentage",~0%
same,MIC,"[4]; Klebsiella pneumoniae, used alone, read-out: MIC used alone (MICa, MICb)",> 20 µg/mL
same,MICab (MIC of dronedarone after combination with polymyxin B),[4]; in combination with polymyxin B 4 μg/mL,2.5 µg/mL
same,inhibition at 20 µg/mL,"[5]; Klebsiella pneumoniae, ATCC13883, dronedarone alone at highest concentration 20 μg/mL, no polymyxin B, read-out: bacterial inhibition percentage",~0%
same,MIC,"[5]; Klebsiella pneumoniae, ATCC13883, used alone, read-out: MIC used alone (MICa, MICb)",> 20 µg/mL
same,MICab (MIC of dronedarone after combination with polymyxin B),[5]; in combination with polymyxin B 0.13 μg/mL,2.5 µg/mL
same,survival rate,[6]; dronedarone alone 10 mg/kg,10%
polymyxin B,MICba (MIC of polymyxin B after combination with dronedarone),[1]; [8],0.25 µg/mL
same,inhibition percentage,[1]; [9],100%
same,"MIC used alone (MICa, MICb)",[1]; used alone,2 µg/mL
same,MICba (MIC of polymyxin B after combination with dronedarone),[2]; [8],0.25 µg/mL
same,inhibition percentage,[2]; [9],100%
same,"MIC used alone (MICa, MICb)",[2]; used alone,1 µg/mL
same,MICba (MIC of polymyxin B after combination with dronedarone),[3]; in combination with dronedarone 10 μg/mL,1 µg/mL
same,inhibition percentage,[3]; [10],100%
same,"MIC used alone (MICa, MICb)",[3]; used alone,2 µg/mL
same,MICba (MIC of polymyxin B after combination with dronedarone),[4]; [11],4 µg/mL
same,inhibition percentage,"[4]; polymyxin B 16 μg/mL, dronedarone not used",100%
same,"MIC used alone (MICa, MICb)",[4]; used alone,16 µg/mL
same,MICba (MIC of polymyxin B after combination with dronedarone),[5]; [11],0.13 µg/mL
same,inhibition percentage,[5]; [10],100%
same,"MIC used alone (MICa, MICb)",[5]; used alone,2 µg/mL
same,survival rate,[6]; polymyxin B alone 0.2 mg/kg,10%
